{"source": "ChEMBL document CHEMBL4118195", "about": "“Synthesis and profiling of benzylmorpholine 1,2,4,5-tetraoxane analogue N205: Towards tetraoxane scaffolds with potential for single dose cure of malaria” (Bioorg Med Chem, 2018)", "key": {"Cytochrome P450 2C19": {"target": "Cytochrome P450 2C19 (Homo sapiens, UniProt P33261)", "sequence (P33261 whole entry)": "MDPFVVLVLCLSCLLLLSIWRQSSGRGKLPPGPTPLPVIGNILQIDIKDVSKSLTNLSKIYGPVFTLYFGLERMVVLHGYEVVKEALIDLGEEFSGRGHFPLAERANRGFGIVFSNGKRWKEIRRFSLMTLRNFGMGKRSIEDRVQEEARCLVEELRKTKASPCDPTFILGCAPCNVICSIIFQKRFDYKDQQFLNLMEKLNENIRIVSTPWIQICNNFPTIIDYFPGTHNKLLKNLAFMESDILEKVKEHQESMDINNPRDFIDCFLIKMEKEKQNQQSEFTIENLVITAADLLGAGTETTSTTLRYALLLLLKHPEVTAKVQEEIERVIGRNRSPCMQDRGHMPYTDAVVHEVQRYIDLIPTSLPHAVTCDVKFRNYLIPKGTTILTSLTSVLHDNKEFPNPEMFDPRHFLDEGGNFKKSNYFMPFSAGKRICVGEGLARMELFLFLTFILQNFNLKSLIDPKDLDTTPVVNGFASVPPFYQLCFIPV", "experiment": "Inhibition of CYP2C19 in human liver microsomes assessed as (S)-mephenytoin 4'-hydroxylation after 4 to 40 mins in presence of NADPH by LCMS analysis", "type": "ADME"}, "Plasmodium falciparum [1]": {"test_system": "Plasmodium falciparum", "experiment": "Antimalarial activity against Plasmodium falciparum 3D7 infected in human erythrocytes after 48 hrs by SYBR Green I dye-based fluorescence assay", "type": "functional, organism-based", "settings": "3D7, 48 h"}, "[2]": {"experiment": "Drug degradation in rat liver microsomes assessed as compound half life at 5 uM by UPLC-MS method", "type": "ADME, microsome"}, "[3]": {"experiment": "Drug degradation in mouse liver microsomes assessed as compound half life at 5 uM by UPLC-MS method", "type": "ADME, microsome"}, "[4]": {"experiment": "Drug metabolism in mouse liver microsomes assessed as metabolite M+16 (IV) formation at 5 uM after 60 mins by UPLC-MS analysis", "type": "ADME, microsome", "settings": "1 h"}, "[5]": {"experiment": "Drug metabolism in rat liver microsomes assessed as ring dehydrogenated metabolite formation at 5 uM after 60 mins by UPLC-MS analysis", "type": "ADME, microsome", "settings": "1 h"}, "[6]": {"experiment": "Drug metabolism in rat liver microsomes assessed as morpholine ring opened metabolite formation at 5 uM after 60 mins by UPLC-MS analysis", "type": "ADME, microsome", "settings": "1 h"}, "[7]": {"experiment": "Drug metabolism in mouse liver microsomes assessed as cleaved morpholine ring metabolite formation at 5 uM after 60 mins by UPLC-MS analysis", "type": "ADME, microsome", "settings": "1 h"}, "[8]": {"experiment": "Drug metabolism in rat liver microsomes assessed as open morpholine ring metabolite formation at 5 uM after 60 mins by UPLC-MS analysis", "type": "ADME, microsome", "settings": "1 h"}, "[9]": {"experiment": "Drug metabolism in rat liver microsomes assessed as deaminated morpholine acid metabolite formation at 5 uM after 60 mins by UPLC-MS analysis", "type": "ADME, microsome", "settings": "1 h"}, "[10]": {"experiment": "Drug metabolism in human liver microsomes assessed as bis-oxygenation and dehydrogenation metabolite formation at 5 uM after 60 mins by UPLC-MS analysis", "type": "ADME, microsome", "settings": "1 h"}, "[11]": {"experiment": "Drug metabolism in rat liver microsomes assessed as bis-oxygenation and dehydrogenation metabolite formation at 5 uM after 60 mins by UPLC-MS analysis", "type": "ADME, microsome", "settings": "1 h"}, "[12]": {"experiment": "Drug metabolism in mouse liver microsomes assessed as mono-oxygenation and dehydrogenation metabolite formation at 5 uM after 60 mins by UPLC-MS analysis", "type": "ADME, microsome", "settings": "1 h"}, "Cytochrome P450 3A4": {"target": "Cytochrome P450 3A4 (Homo sapiens, UniProt P08684)", "sequence (P08684 whole entry)": "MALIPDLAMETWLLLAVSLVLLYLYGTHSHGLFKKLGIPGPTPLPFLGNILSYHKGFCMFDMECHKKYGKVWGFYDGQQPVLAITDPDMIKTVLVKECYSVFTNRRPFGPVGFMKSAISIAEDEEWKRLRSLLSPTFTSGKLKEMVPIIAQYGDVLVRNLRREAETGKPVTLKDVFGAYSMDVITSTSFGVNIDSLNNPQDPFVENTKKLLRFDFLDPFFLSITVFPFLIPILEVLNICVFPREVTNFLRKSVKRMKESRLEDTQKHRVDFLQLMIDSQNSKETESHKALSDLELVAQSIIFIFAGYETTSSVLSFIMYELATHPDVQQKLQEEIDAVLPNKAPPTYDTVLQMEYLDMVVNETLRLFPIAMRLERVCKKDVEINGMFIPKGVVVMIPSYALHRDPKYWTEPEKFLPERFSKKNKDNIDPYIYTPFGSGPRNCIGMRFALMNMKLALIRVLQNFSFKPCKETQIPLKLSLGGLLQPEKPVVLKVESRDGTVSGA", "experiment": "Inhibition of CYP3A4 in human liver microsomes assessed as testosterone 6beta-hydroxylation after 4 to 40 mins in presence of NADPH by LCMS analysis", "type": "ADME"}, "Plasmodium falciparum [13]": {"test_system": "Plasmodium falciparum", "experiment": "Antimalarial activity against Plasmodium falciparum Pf3D70087/N9 infected in po dosed humanized NOD.Cg-Prkdcscid Il2rgtm1Wjl/SzJ mouse assessed as reduction in parasitemia administered as single dose measured on day 7 post infection by SYTO-16 dye-based flow cytometric analysis", "type": "functional", "settings": "168 h"}, "[14]": {"experiment": "Cmax in humanized NOD.Cg-Prkdcscid Il2rgtm1Wjl/SzJ mouse infected with Plasmodium falciparum Pf3D70087/N9 at 5 mg/kg, po administered as single dose after 0.25 to 23 hrs by LC-MS/MS analysis", "type": "ADME, organism-based", "parameters": "dose 5 mg/kg, route oral", "settings": "in vivo"}, "[15]": {"experiment": "Cmax in humanized NOD.Cg-Prkdcscid Il2rgtm1Wjl/SzJ mouse infected with Plasmodium falciparum Pf3D70087/N9 at 30 mg/kg, po administered as single dose after 0.25 to 23 hrs by LC-MS/MS analysis", "type": "ADME, organism-based", "parameters": "dose 30 mg/kg, route oral", "settings": "in vivo"}, "[16]": {"experiment": "Cmax in humanized NOD.Cg-Prkdcscid Il2rgtm1Wjl/SzJ mouse infected with Plasmodium falciparum Pf3D70087/N9 at 50 mg/kg, po administered as single dose after 0.25 to 23 hrs by LC-MS/MS analysis", "type": "ADME, organism-based", "parameters": "dose 50 mg/kg, route oral", "settings": "in vivo"}, "[17]": {"experiment": "Tmax in humanized NOD.Cg-Prkdcscid Il2rgtm1Wjl/SzJ mouse infected with Plasmodium falciparum Pf3D70087/N9 at 5 mg/kg, po administered as single dose by LC-MS/MS analysis", "type": "ADME, organism-based", "settings": "in vivo"}, "[18]": {"experiment": "Tmax in humanized NOD.Cg-Prkdcscid Il2rgtm1Wjl/SzJ mouse infected with Plasmodium falciparum Pf3D70087/N9 at 15 mg/kg, po administered as single dose by LC-MS/MS analysis", "type": "ADME, organism-based", "settings": "in vivo"}, "[19]": {"experiment": "Tmax in humanized NOD.Cg-Prkdcscid Il2rgtm1Wjl/SzJ mouse infected with Plasmodium falciparum Pf3D70087/N9 at 30 mg/kg, po administered as single dose by LC-MS/MS analysis", "type": "ADME, organism-based", "settings": "in vivo"}, "[20]": {"experiment": "AUC (0 to t) in humanized NOD.Cg-Prkdcscid Il2rgtm1Wjl/SzJ mouse infected with Plasmodium falciparum Pf3D70087/N9 at 15 mg/kg, po administered as single dose by LC-MS/MS analysis", "type": "ADME, organism-based", "settings": "in vivo"}, "Mus musculus [21]": {"test_system": "Mus musculus", "experiment": "Dose normalized AUC (0 to t) in humanized NOD.Cg-Prkdcscid Il2rgtm1Wjl/SzJ mouse infected with Plasmodium falciparum Pf3D70087/N9 at 5 mg/kg, po administered as single dose by LC-MS/MS analysis", "type": "ADME, organism-based", "settings": "in vivo"}, "Mus musculus [22]": {"test_system": "Mus musculus", "experiment": "Dose normalized AUC (0 to t) in humanized NOD.Cg-Prkdcscid Il2rgtm1Wjl/SzJ mouse infected with Plasmodium falciparum Pf3D70087/N9 at 30 mg/kg, po administered as single dose by LC-MS/MS analysis", "type": "ADME, organism-based", "settings": "in vivo"}, "[23]": {"experiment": "Retention time of the compound", "type": "physicochemical"}}, "data": [{"smiles": "c1cc(C2CCC3(CC2)OOC2(OO3)C3CC4CC(C3)CC2C4)ccc1CN1CCOCC1", "note": "(stereo not given)", "values": [{"measurement": "IC50", "setting": "Cytochrome P450 2C19", "value": "> 20", "unit": "µM"}, {"measurement": "IC50", "setting": "Plasmodium falciparum [1]", "value": 0.0013, "unit": "µM"}, {"measurement": "half-life at 5 µM", "setting": "[2]", "value": 0.333, "unit": "h"}, {"measurement": "half-life at 5 µM", "setting": "[3]", "value": 1.45, "unit": "h"}, {"measurement": "Drug metabolism", "setting": "[4]", "value": "Metabolite_Detected"}, {"measurement": "Drug metabolism", "setting": "[5]", "value": "Metabolite_Notdetected"}, {"measurement": "Drug metabolism", "setting": "[6]", "value": "Metabolite_Notdetected"}, {"measurement": "Drug metabolism", "setting": "[7]", "value": "Metabolite_Notdetected"}, {"measurement": "Drug metabolism", "setting": "[8]", "value": "Metabolite_Notdetected"}, {"measurement": "Drug metabolism", "setting": "[9]", "value": "Metabolite_Notdetected"}, {"measurement": "Drug metabolism", "setting": "[10]", "value": "Metabolite_Notdetected"}, {"measurement": "Drug metabolism", "setting": "[11]", "value": "Metabolite_Notdetected"}, {"measurement": "Drug metabolism", "setting": "[12]", "value": "Metabolite_Notdetected"}, {"measurement": "IC50", "setting": "Cytochrome P450 3A4", "value": "> 20", "unit": "µM"}, {"measurement": "ED90", "setting": "Plasmodium falciparum [13]", "value": 8.6, "unit": "mg/kg"}, {"measurement": "Cmax", "setting": "[14]", "value": 109, "unit": "ng/mL"}, {"measurement": "Cmax", "setting": "[15]", "value": 148, "unit": "ng/mL"}, {"measurement": "Cmax", "setting": "[16]", "value": 607, "unit": "ng/mL"}, {"measurement": "Tmax", "setting": "[17]", "value": 1, "unit": "h"}, {"measurement": "Tmax", "setting": "[18]", "value": 1, "unit": "h"}, {"measurement": "Tmax", "setting": "[19]", "value": 1, "unit": "h"}, {"measurement": "AUC(0-t)", "setting": "[20]", "value": 749, "unit": "ng·h/mL"}, {"measurement": "AUCt/dose", "setting": "Mus musculus [21]", "value": 0.256, "unit": "µg·h/mL/mg/kg"}, {"measurement": "AUCt/dose", "setting": "Mus musculus [22]", "value": 0.0313, "unit": "µg·h/mL/mg/kg"}, {"measurement": "Retention_time", "setting": "[23]", "value": 3.68, "unit": "min"}]}]}
